The record followed here is ChEMBL document CHEMBL3508140 (2016).

The nature of data set [1]: Recovery of 7-deoxy epirubicinol aglycone following intravenous epirubicin at 1.5 mg.Kg-1 dose in man. It is filed as ADME, organism-based, Plasma. The settings on record: human, in vivo.
Data set [2] is described as follows: Detection of 7-deoxydoxorubicinol aglycone in heart following single intravenous epirubicin at 10 mg.Kg-1 dose in female mouse bearing colon tumor. The class given is ADME, organism-based, BALB/c. The settings on record: in vivo.
Data set [3] can be described thus: AUC values (0-48 h) of 7-deoxy epirubicinol aglycone in tumor following single intravenous epirubicin at 10 mg.Kg-1 dose in female mouse bearing colon tumor. It is filed as ADME, organism-based, BALB/c, Neoplasm. The settings on record: in vivo.
A short description of data set [4]: Detection of 7-deoxydoxorubicinol aglycone in tumor following single intravenous doxorubicin at 10 mg.Kg-1 dose in female mouse bearing colon tumor. It is filed as ADME, organism-based, BALB/c, Neoplasm. Also on record: dose 10 mg.Kg-1, dosed compound id 2.46809e+06, dosed compound name Doxorubicin, gender F, regimen Single, route intravenous, sampling time 48 h. Conditions: in vivo.

Data set [5] is described as follows: Recovery of 7-deoxy epirubicinol aglycone following intravenous epirubicin at 4 mg.Kg-1 dose in rat. It is filed as ADME, organism-based, SD, Plasma. Conditions: in vivo.
Data set [6] in a line: Recovery of 7-deoxy epirubicinol aglycone following intravenous epirubicin at 4 mg.Kg-1 dose in rabbit. Conditions: in vivo. The class given is ADME, organism-based, Oryctolagus cuniculus, New Zealand White, Plasma.
Data set [7] in a line: Detection of 7-deoxydoxorubicinol aglycone in plasma following single intravenous epirubicin at 10 mg.Kg-1 dose in female mouse bearing colon tumor. It is filed as ADME, organism-based, BALB/c. Conditions: in vivo.
Data set [8] can be described thus: Detection of 7-deoxydoxorubicinol aglycone in heart following single intravenous doxorubicin at 10 mg.Kg-1 dose in female mouse bearing colon tumor. Also on record: dose 10 mg.Kg-1, dosed compound id 2.46809e+06, dosed compound name Doxorubicin, gender F, regimen Single, route intravenous, sampling time 48 h. Conditions: in vivo. It is filed as ADME, organism-based, BALB/c.

The nature of data set [9]: AUC values (0-48 h) of 7-deoxy epirubicinol aglycone in heart following single intravenous epirubicin at 10 mg.Kg-1 dose in female mouse bearing colon tumor. The class given is ADME, organism-based, BALB/c. Conditions: in vivo.
A short description of data set [10]: AUC values (0-48 h) of 7-deoxy epirubicinol aglycone in plasma following single intravenous epirubicin at 10 mg.Kg-1 dose in female mouse bearing colon tumor. It is filed as ADME, organism-based, BALB/c. The settings on record: in vivo.
Data set [11] can be described thus: Detection of 7-deoxydoxorubicinol aglycone in tumor following single intravenous epirubicin at 10 mg.Kg-1 dose in female mouse bearing colon tumor. The class given is ADME, organism-based, BALB/c, Neoplasm. Conditions: in vivo.
Data set [12] in a line: AUC values (0-48 h) of 7-deoxy doxorubicin-aglycone in heart following single intravenous doxorubicin at 10 mg.Kg-1 dose in female mouse bearing colon tumor. The class given is ADME, organism-based, BALB/c. Also on record: time < 48 hr, dose 10 mg.Kg-1, dosed compound id 2.46809e+06, dosed compound name Doxorubicin, gender F, regimen Single, route intravenous, sampling time 48 h. The settings on record: in vivo.

The nature of data set [13]: AUC values (0-48 h) of 7-deoxy doxorubicin-aglycone in plasma following single intravenous doxorubicin at 10 mg.Kg-1 dose in female mouse bearing colon tumor. Conditions: in vivo. Also on record: time < 48 hr, dose 10 mg.Kg-1, dosed compound id 2.46809e+06, dosed compound name Doxorubicin, gender F, regimen Single, route intravenous, sampling time 48 h. It is filed as ADME, organism-based, BALB/c.

Data set [14] in a line: Detection of 7-deoxydoxorubicinol aglycone in plasma following single intravenous doxorubicin at 10 mg.Kg-1 dose in female mouse bearing colon tumor. It is filed as ADME, organism-based, BALB/c. Also on record: dose 10 mg.Kg-1, dosed compound id 2.46809e+06, dosed compound name Doxorubicin, gender F, regimen Single, route intravenous, sampling time 48 h. Conditions: in vivo.

Data set [15] can be described thus: AUC values (0-48 h) of 7-deoxy doxorubicin-aglycone in tumor following single intravenous doxorubicin at 10 mg.Kg-1 dose in female mouse bearing colon tumor. The class given is ADME, organism-based, BALB/c, Neoplasm. Also on record: time < 48 hr, dose 10 mg.Kg-1, dosed compound id 2.46809e+06, dosed compound name Doxorubicin, gender F, regimen Single, route intravenous, sampling time 48 h. Conditions: in vivo.

The nature of data set [16]: Recovery of 7-deoxy epirubicinol aglycone following intraperitoneal epirubicin at 4 mg.Kg-1 dose in mouse. It is filed as ADME, organism-based, CD-1, Plasma. Conditions: in vivo, ip.
The nature of data set [17]: Recovery of 7-deoxy epirubicinol aglycone following intraperitoneal epirubicin at 4 mg.Kg-1 dose in hamster. It is filed as ADME, organism-based, Cricetulus griseus, Plasma. Conditions: chinese hamster, in vivo, ip.
The nature of data set [18]: Plasma clearance of carminomycin following intravenous carminomycin at 1.0 mg.Kg-1 dose in dog. It is filed as ADME, organism-based, Canis lupus familiaris. Also on record: dose 1 mg.Kg-1, dosed compound id 2.46809e+06, dosed compound name Carminomycin, route intravenous. The settings on record: Beagle, read-out: Clp.
Data set [19] is described as follows: Terminal half-life of carminomycin following intravenous carminomycin at 1.0 mg.Kg-1 dose in dog. Also on record: dose 1 mg.Kg-1, dosed compound id 2.46809e+06, dosed compound name Carminomycin, route intravenous. The class given is ADME, organism-based, Canis lupus familiaris. The settings on record: Beagle, plasma.
Data set [20] is described as follows: Volume of distribution of carminomycin following intravenous carminomycin at 1.0 mg.Kg-1 dose in dog. The settings on record: Beagle, plasma. Also on record: dose 1 mg.Kg-1, dosed compound id 2.46809e+06, dosed compound name Carminomycin, route intravenous. It is filed as ADME, organism-based, Canis lupus familiaris.
Data set [21] is described as follows: AUC (2-8 h) of ADR-529 following intravenous ADR-529 at 20 mg.Kg-1 dose administered approximately 25 minute prior to epirubicin once weekly for four weeks in dog. It is filed as ADME, organism-based, Canis lupus familiaris. Also on record: dose 20 mgKg-1, dosed compound id 2.4681e+06, dosed compound name Dexrazoxane, dose level High, route intravenous, sampling time 8 h, study doses 5/10/20 mgKg-1. Conditions: Beagle, plasma.

Data set [22] can be described thus: Mean terminal half-life for ADR-529 following intravenous epirubicin at 0.5 mg.Kg-1 dose administered approximately 25 minute prior to epirubicin once weekly for four weeks in dog. The class given is ADME, organism-based, Canis lupus familiaris. The settings on record: Beagle, plasma.
Data set [23] in a line: AUC (2-8 h) of ADR-529 following intravenous ADR-529 at 10 mg.Kg-1 dose administered approximately 25 minute prior to epirubicin once weekly for four weeks in dog. The class given is ADME, organism-based, Canis lupus familiaris. The settings on record: Beagle, plasma. Also on record: dose 10 mgKg-1, dosed compound id 2.4681e+06, dosed compound name Dexrazoxane, dose level Intermediate, route intravenous, sampling time 8 h, study doses 5/10/20 mgKg-1.

Data set [24] can be described thus: Mean terminal half-life for ADR-529 following intravenous epirubicin at 1 mg.Kg-1 dose administered approximately 25 minute prior to epirubicin once weekly for four weeks in dog. It is filed as ADME, organism-based, Canis lupus familiaris. Conditions: Beagle, plasma.

Molecules are shown by their SMILES.

Take `COc1cccc2c1C(=O)c1c(O)c3c(c(O)c1C2=O)C[C@@](O)(C(O)CO)CC3` (some centres undefined): the Compound recovery was 25 10^-9M in [1]; “OUTCOME = Observed” in data set [2]; “OUTCOME = Observed” in data set [4]; 4.2 10^-9M in data set [5]; 4.2 10^-9M in [6]; “OUTCOME = Observed” in [7]. Besides, the Compound recovery result in [8] is “OUTCOME = Observed”; in data set [11], “OUTCOME = Observed”; in data set [14] it was “OUTCOME = Observed”; in data set [16] it was 20 10^-9M; in [17] it was 21 10^-9M. For the same compound, the AUC in [3] came out at 99 nmol·min/g; in data set [9] it was 66 nmol·min/g; in data set [10] it was 53.9 nmol·min/mL; in data set [12] it was 218 nmol·min/g; in [13], 83.3 nmol·min/mL; in [15], 204 nmol·min/g.
In the case of `CC(=O)[C@]1(O)Cc2c(O)c3c(c(O)c2[C@@H](O[C@H]2C[C@H](N)[C@H](O)[C@H](C)O2)C1)C(=O)c1c(O)cccc1C3=O` [CARUBICIN], the clearance in data set [18] is 1360 mL/min. In data set [19], this compound had a half-life of 0.338 h. For the same compound, the Vd in [20] amounted to 98.5 L/kg.
`C[C@@H](CN1CC(=O)NC(=O)C1)N1CC(=O)NC(=O)C1` [DEXRAZOXANE]: the values for the AUC in data set [21] and in data set [23] were 5570 ng·h/mL and 2710 ng·h/mL, respectively. Besides, the half-life in data set [22] was 1.8 h; in data set [24], 1.2 h.

In general, half-life refers to the time needed for the level to fall by half in the phase considered. By Vd is commonly meant a proportionality between amount in the body and measured concentration, not a real space. A low value points to confinement near the circulation.
